Entries after “also recorded” stand apart in the source; their conditions may differ.
Target: T1, gp130-IL-6R complexes (Homo sapiens, UniProt P40189)
T1 construct: Flag; expressed in transfected cells; host or cells: adult human articular chondrocytes
T1 sequence (P40189 23-918): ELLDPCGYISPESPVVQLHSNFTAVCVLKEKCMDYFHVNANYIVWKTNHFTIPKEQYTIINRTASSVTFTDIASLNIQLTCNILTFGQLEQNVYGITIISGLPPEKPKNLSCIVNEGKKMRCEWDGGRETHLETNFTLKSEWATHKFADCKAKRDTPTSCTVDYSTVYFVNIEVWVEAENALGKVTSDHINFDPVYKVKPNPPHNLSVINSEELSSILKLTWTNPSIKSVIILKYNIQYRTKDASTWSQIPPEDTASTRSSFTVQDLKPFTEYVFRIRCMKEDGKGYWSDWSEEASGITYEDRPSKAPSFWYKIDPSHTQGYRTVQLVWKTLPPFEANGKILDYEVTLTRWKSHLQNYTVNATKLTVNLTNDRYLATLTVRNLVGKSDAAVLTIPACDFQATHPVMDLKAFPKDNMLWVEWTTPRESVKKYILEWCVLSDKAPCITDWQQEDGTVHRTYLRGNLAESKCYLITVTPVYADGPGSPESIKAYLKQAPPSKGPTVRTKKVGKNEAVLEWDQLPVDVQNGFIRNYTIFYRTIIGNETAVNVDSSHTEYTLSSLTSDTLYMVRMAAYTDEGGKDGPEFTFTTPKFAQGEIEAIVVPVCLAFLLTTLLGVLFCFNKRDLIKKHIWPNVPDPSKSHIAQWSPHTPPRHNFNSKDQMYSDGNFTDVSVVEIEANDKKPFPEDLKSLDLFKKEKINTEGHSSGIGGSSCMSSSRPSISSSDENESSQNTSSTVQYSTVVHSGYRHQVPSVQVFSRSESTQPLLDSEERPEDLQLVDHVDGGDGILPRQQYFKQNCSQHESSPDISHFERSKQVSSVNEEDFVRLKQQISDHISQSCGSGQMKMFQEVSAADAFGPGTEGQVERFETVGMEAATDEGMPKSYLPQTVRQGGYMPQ
Test: Receptor competition, gp130-Flag pull-down, IL-6R
Assay type: cell-based
Conditions: in the presence of IL-6
Protocol: Adult human chondrocytes transfected with gp130-Flag were incubated with various concentrations of RCGD 423 in the presence of IL-6 or OSM; levels of immoprecipitated IL-6R or OSMR were used to calculate the dissociation constant (Kd).
This property would be of great interest due to the pro-inflammatory and pro-catabolic effects of these cytokines in the joint space. […] To assess whether RCGD 423 could directly compete for gp130 occupancy, human adult articular chondrocytes were transfected with tagged gp130 and then pulled down associated proteins±RCGD 423 and/or IL-6.

## Brc1ccc(Nc2nc(-c3ccccc3)cs2)cc1 [RCGD 423]
  gp130-IL-6R complexes / competition with IL-6R for gp130 occupancy: gp130-IL-6R complexes were significantly reduced; also recorded: directly competes with OSMR and IL-6R for gp130 occupancy
